Measurements: PubChem BioAssay AID2060889 (Molecular Pharmacology Branch, DTP, NCI, 2025)
pIC50: −log10 of the molar value.

System: LG0567-F671-PDC complex spheroids viability
Assay: Anticancer human tumor LG0567-F671-PDC patient-derived lung adenocarcinoma cell line growth inhibition [RAS]
Details: for pIC50: curve of first compound; for viability, T/C: stronger effect = lower value
Outline: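 Agents were tested in combination matrices in half-log decrements from a top concentration at or near clinical Cmax (10 microM if undetermined). Targets were multi-cell spheroids of tumour lines plus HUVEC and MSC stromal cells.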
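Further: spheroids exposed to compound for seven days before readout.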
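Wherever pIC50 is given: luminescence signal used as a proxy for viable cells.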

## CC(C)n1nc(-c2ccc3oc(N)nc3c2)c2c(N)ncnc21 + C=CC(=O)N1CCN(c2nc(OCC3CCCN3C)nc3c(F)c(-c4nc(N)cc(C)c4C(F)(F)F)c(Cl)cc23)C(C)C1
Second compound 0.00316 µM
  pIC50: > 9.50
Second compound 0.01 µM
  pIC50: > 9.50
Second compound 0.0316 µM
  pIC50: > 9.50
Second compound 0.1 µM
  pIC50: > 9.50
Second compound 0.316 µM
  pIC50: > 9.50
Second compound 1 µM
  pIC50: > 9.50
Second compound 0.00316 µM, first compound 0.000316 µM
  viability, T/C: 13.7%
Second compound 0.00316 µM, first compound 0.001 µM
  viability, T/C: 17.2%
Second compound 0.00316 µM, first compound 0.00316 µM
  viability, T/C: 11.4%
Second compound 0.00316 µM, first compound 0.01 µM
  viability, T/C: 9.86%
Second compound 0.00316 µM, first compound 0.0316 µM
  viability, T/C: 7.75%
Second compound 0.00316 µM, first compound 0.1 µM
  viability, T/C: 6.24%
Second compound 0.01 µM, first compound 0.000316 µM
  viability, T/C: 12.6%
Second compound 0.01 µM, first compound 0.001 µM
  viability, T/C: 10.8%
Second compound 0.01 µM, first compound 0.00316 µM
  viability, T/C: 10.5%
Second compound 0.01 µM, first compound 0.01 µM
  viability, T/C: 7.96%
Second compound 0.01 µM, first compound 0.0316 µM
  viability, T/C: 7.27%
Second compound 0.01 µM, first compound 0.1 µM
  viability, T/C: 4.67%
Second compound 0.0316 µM, first compound 0.000316 µM
  viability, T/C: 12.2%
Second compound 0.0316 µM, first compound 0.001 µM
  viability, T/C: 11.5%
Second compound 0.0316 µM, first compound 0.00316 µM
  viability, T/C: 9.25%
Second compound 0.0316 µM, first compound 0.01 µM
  viability, T/C: 10.8%
Second compound 0.0316 µM, first compound 0.0316 µM
  viability, T/C: 6.75%
Second compound 0.0316 µM, first compound 0.1 µM
  viability, T/C: 4.77%
Second compound 0.1 µM, first compound 0.000316 µM
  viability, T/C: 11.1%
Second compound 0.1 µM, first compound 0.001 µM
  viability, T/C: 10.7%
Second compound 0.1 µM, first compound 0.00316 µM
  viability, T/C: 10.9%
Second compound 0.1 µM, first compound 0.01 µM
  viability, T/C: 8.59%
Second compound 0.1 µM, first compound 0.0316 µM
  viability, T/C: 7.47%
Second compound 0.1 µM, first compound 0.1 µM
  viability, T/C: 4.81%
Second compound 0.316 µM, first compound 0.000316 µM
  viability, T/C: 11.6%
Second compound 0.316 µM, first compound 0.001 µM
  viability, T/C: 10.8%
Second compound 0.316 µM, first compound 0.00316 µM
  viability, T/C: 9.88%
Second compound 0.316 µM, first compound 0.01 µM
  viability, T/C: 7.87%
Second compound 0.316 µM, first compound 0.0316 µM
  viability, T/C: 6.07%
Second compound 0.316 µM, first compound 0.1 µM
  viability, T/C: 4.55%
Second compound 1 µM, first compound 0.000316 µM
  viability, T/C: 14.2%
Second compound 1 µM, first compound 0.001 µM
  viability, T/C: 11.4%
Second compound 1 µM, first compound 0.00316 µM
  viability, T/C: 14.3%
Second compound 1 µM, first compound 0.01 µM
  viability, T/C: 10.9%
Second compound 1 µM, first compound 0.0316 µM
  viability, T/C: 7.1%
Second compound 1 µM, first compound 0.1 µM
  viability, T/C: 5.83%
